These results are taken from patent publication US10155004B2, “17-hydroxy-17-pentafluoroethyl-estra-4,9(10)-dien-11-aryl derivatives, method of production thereof and use thereof for the treatment of diseases” (BAYER INTELLECTUAL PROPERTY GMBH, priority 2009, dated 2018).

For this assay, the target named is T1, human progesterone receptor A (Homo sapiens, UniProt P06401).
T1 construct: expressed in transfected cells; host or cells: SK-N-MC human neuroblastoma cells, stably transfected
T1 sequence (P06401 1-769 isoform P06401-2): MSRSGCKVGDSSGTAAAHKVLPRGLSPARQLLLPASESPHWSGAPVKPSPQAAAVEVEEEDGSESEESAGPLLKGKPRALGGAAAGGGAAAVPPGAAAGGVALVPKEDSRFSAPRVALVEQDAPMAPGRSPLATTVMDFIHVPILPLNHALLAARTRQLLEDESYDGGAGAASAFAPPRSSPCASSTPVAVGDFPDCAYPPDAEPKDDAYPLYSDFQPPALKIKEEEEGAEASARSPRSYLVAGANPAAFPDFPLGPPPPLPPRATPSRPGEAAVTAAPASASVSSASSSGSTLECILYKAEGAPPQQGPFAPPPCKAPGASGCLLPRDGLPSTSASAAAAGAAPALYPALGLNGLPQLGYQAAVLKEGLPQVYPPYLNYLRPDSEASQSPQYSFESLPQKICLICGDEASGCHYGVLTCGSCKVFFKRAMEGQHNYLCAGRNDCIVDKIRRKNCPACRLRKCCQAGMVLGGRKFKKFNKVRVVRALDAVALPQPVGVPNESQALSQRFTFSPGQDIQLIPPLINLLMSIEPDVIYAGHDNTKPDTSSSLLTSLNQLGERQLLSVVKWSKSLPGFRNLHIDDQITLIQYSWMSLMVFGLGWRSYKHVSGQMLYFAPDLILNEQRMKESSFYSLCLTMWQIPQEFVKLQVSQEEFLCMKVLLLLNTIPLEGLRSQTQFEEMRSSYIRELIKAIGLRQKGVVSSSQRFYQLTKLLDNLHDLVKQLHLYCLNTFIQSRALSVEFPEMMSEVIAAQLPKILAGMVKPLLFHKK
Kind of assay: Progesterone receptor-antagonistic action in stably transfected SK-N-MC cells, MTV-LUC reporter (PR-A). It is filed as cell-based. The conditions noted are these: antagonistic efficacy vs 0.1 nmol/l promegestone. As for the experimental part:
EXAMPLE 16 PROGESTERONE RECEPTOR-ANTAGONISTIC ACTION IN STABLE TRANSFECTANTS OF HUMAN NEUROBLASTOMA CELLS (SK-N-MC CELLS) WITH THE HUMAN PROGESTERONE A OR PROGESTERONE B RECEPTOR AND AN MTV-LUC REPORTER CONSTRUCT
SK-N-MC cells (human neuroblastoma cells), which have been stably transfected with plasmids, which express the human progesterone receptor B (pRChPR-B-neo) or the human progesterone receptor A (pRChPR-A-neo) and a reporter construct (pMMTV-LUC), were incubated for 24 hours either in the absence (negative control) or in the presence of increasing amounts of the respective test compound (0.01 nmol/l, 0.1 nmol/l 1 nmol/l, 10 nmol/l, 100 nmol/l and 1 μmol/l), in order to determine the agonistic efficacy. As positive control of reporter gene induction, the cells were treated with the synthetic gestagen promegestone (0.01 nmol/l, 0.1 nmol/l, 1 nmol/l, 10 nmol/l, 100 nmol/l and 1 μmol/l). For determination of the antagonistic activity, the cells were treated with 0.1 nmol/1 promegestone and additionally with increasing amounts of the respective test compound (0.01 nmol/l, 0.1 nmol/l, 1 nmol/l, 10 nmol/l, 100 nmol/l and 1 μmol/l). The activity of the LUC reporter gene (LUC=luciferase) was determined in the cell lysates and was measured as RLU (relative light units). All measured values are given as percentage efficacy and as EC50 or IC50 concentrations.
11β-(4-Acetylphenyl)-20,20,21,21,21-pentafluoro-17-hydroxy-19-nor-17α-pregna-4,9-dien-3-one and 20,20,21,21,21-pentafluoro-17-hydroxy-11β-[4-(hydroxyacetyl)phenyl]-19-nor-17α-pregna-4,9-dien-3-one, very potent and therefore preferred examples from WO98/34947 and WO2008/058767, were tested as comparative compounds along with the test compound.

SMILES strings stand for the structures.

As for `C[C@]12C[C@H](c3ccc(S(C)(=O)=O)cc3)C3=C4CCC(=O)C=C4CC[C@H]3[C@@H]1CC[C@@]2(O)C(F)(F)C(F)(F)F` [Example 4, (11β,17β)-17-Hydroxy-11-[4-(methylsulphonyl)phenyl]-17-(pentafluoroethyl)estra-4,9-dien-3-one], the “Progesterone receptor A (PR-A) Efficacy” value came out at 100%.
